Test results published in article PMC10146186, “Modulation of the Cytotoxic Properties of Pd(II) Complexes Based on Functionalized Carboxamides Featuring Labile Phosphoryl Coordination Sites” (Pharmaceutics, 2023).

Experiments:
[1] = system: HCT116 colorectal carcinoma cells; experiment: MTT cytotoxicity assay, HCT116; type: cell-based, human; details: 48 h exposure, read-out: IC50 ± SD, HCT116
Protocol: (§1) To characterize the antitumor potential of the resulting Pd(II) pincer complexes, their cytotoxicities against a panel of human solid and hematopoietic cancer cell lines, including colorectal carcinoma (HCT116), breast cancer (MCF7), prostate adenocarcinoma (PC3), glioblastoma (U251), ovarian adenocarcinoma (Scov3), chronic myelogenous leukemia (K562) and its resistant subclone (K562/iS9), multiple plasmacytoma (AMO1), and acute lymphoblastic leukemia (H9) cell lineages, were evaluated using the conventional MTT assay. […] For comparison, the inhibitory effects of the compounds explored on noncancerous human embryonic kidney cells HEK293 as well as transformed breast cells HBL100 and their doxorubicin-resistant analogs HBL100/Dox were also investigated under the same conditions.
(§2) The cytotoxic activity of the compounds explored was investigated on human colorectal carcinoma (HCT116), breast cancer (MCF7), prostate adenocarcinoma (PC3), glioblastoma (U251), ovarian adenocarcinoma (Scov3), chronic myelogenous leukemia (K562 and K562/iS9), multiple plasmacytoma (AMO1), and acute lymphoblastic leukemia (H9) cell lines, as well as human embryonic kidney (HEK293) and mammary epithelial (HBL100 and HBL100/Dox) cells used as representatives of pseudonormal cells. All cell lines were obtained from American Type Culture Collection (ATCC). RPMI-1640 and DMEM media were obtained from Gibco. Fetal bovine serum (FBS) was purchased from HyClone. Cells were cultured in RPMI-1640 or DMEM media supplemented with 10% FBS and 50 μg/mL gentamicin in a humidified incubator with 5% CO2 atmosphere. The cell growth inhibitory effects of the compounds were evaluated using the conventional MTT assay (ICN Biomedicals, Eschwege, Germany). Cells were seeded in triplicate at a cell density of 5 × 10^3/well in 96-well plates in 100 µL complete medium and preincubated for 24 h. The tested compounds were initially dissolved in DMSO. Then, the compounds at various concentrations were added to the media. The well plates were incubated for 48 h followed by addition of MTT solution (Sigma, Darmstadt, Germany) (20 μL, 5 mg/mL). The cells were incubated at 37 °C for further 3 h; then the culture medium was removed, and formazan crystals were dissolved in DMSO (70 μL). The absorbance of the resulting solutions was measured on a multi-well plate reader (Multiskan FC, Thermo scientific) at 530 nm to determine the percentage of surviving cells. The reported values of IC50 are the averages of three independent experiments (Table 2 and Table 3). Cisplatin (in the initial form of an infusion concentrate in natural saline solution) from a commercial source was used as the reference.

MCF7 breast cancer cells = experiment: MTT cytotoxicity assay, MCF7; type: cell-based, human; details: MCF7, MTT, 48 h exposure; read-out: IC50 ± SD, MCF7
Protocol: as §1, §2

[2] = system: PC3 prostate adenocarcinoma cells; experiment: MTT cytotoxicity assay, PC3; type: cell-based, human; details: 48 h exposure, read-out: IC50 ± SD, PC3
Protocol: as §1, §2

U251 glioblastoma cells = experiment: MTT cytotoxicity assay, U251; type: cell-based, human; details: 48 h exposure, read-out: IC50 ± SD, U251
Protocol: as §1, §2

[3] = system: Scov3 ovarian adenocarcinoma cells; experiment: MTT cytotoxicity assay, Scov3; type: cell-based, human; details: Scov3, compound concentration 80.0 μM, 48 h
Protocol: as §1, §2

[4] = system: HEK293 embryonic kidney cells; experiment: MTT cytotoxicity assay, HEK293; type: cell-based, human; details: HEK293 noncancerous cells, 48 h exposure, read-out: IC50 ± SD, HEK293
Protocol: as §1, §2

[5] = system: HBL100 mammary epithelial cells; experiment: MTT cytotoxicity assay, HBL100; type: cell-based, human; details: 48 h exposure, read-out: IC50 ± SD, HBL100
Protocol: as §1, §2

[6] = system: HBL100/Dox doxorubicin-resistant mammary epithelial cells; experiment: MTT cytotoxicity assay, HBL100/Dox; type: cell-based, human; details: MTT, 48 h exposure, read-out: IC50 ± SD, HBL100/Dox
Protocol: as §1, §2

[7] = system: K562 chronic myelogenous leukemia cells; experiment: MTT cytotoxicity assay, K562; type: cell-based, human; details: 48 h exposure, read-out: IC50 ± SD, K562
Protocol: as §1, §2

[8] = system: K562/iS9 resistant chronic myelogenous leukemia cells; experiment: MTT cytotoxicity assay, K562/iS9; type: cell-based, human; details: 48 h exposure, read-out: IC50 ± SD, K562/iS9
Protocol: as §1, §2

[9] = system: AMO1 multiple plasmacytoma cells; experiment: MTT cytotoxicity assay, AMO1; type: cell-based, human; details: AMO1, MTT, 48 h exposure; read-out: IC50 ± SD, AMO1
Protocol: as §1, §2

[10] = system: H9 acute lymphoblastic leukemia cells; experiment: MTT cytotoxicity assay, H9; type: cell-based, human; details: 48 h exposure, read-out: IC50 ± SD, H9
Protocol: as §1
as §2, with “Then, the compounds at various concentrations were added to the media. The well plates were incubated for 48 h followed by addition of MTT solution (Sigma, Darmstadt, Germany) (20 μL, 5 mg/mL). The cells were incubated at 37 °C for further 3 h; then the culture medium was removed, and formazan crystals were dissolved in DMSO (70 μL).” left out, “The reported values of IC50 are the averages of three independent experiments (Table 2 and Table 3). Cisplatin (in the initial form of an infusion concentrate in natural saline solution) from a commercial source was used as the reference.” left out

[11] = UV-vis stability study in DMSO, DMSO–water and DMSO–PBS; type: physicochemical; details: neat DMSO, DMSO–water and DMSO–PBS solutions, over 48 h
Protocol: The observed dependences correlate well with our previous findings on the lability of the phosphoryl sites in palladocycles 2a,b, 3a,b and can be rationalized in terms of their coordination behavior. […] However, the presence of an additional competitive chloride anion makes complex 2b potentially more susceptible to decoordination of the phosphoryl arm. […] At least the N,N-bidentately bound core remained intact in the mentioned media over a period of 48 h.
The NMR spectra were recorded on Bruker Avance 400 and Avance 500 spectrometers, and the chemical shifts (δ) were referenced internally by the residual (^1H) or deuterated (^13C) solvent signals relative to tetramethylsilane or externally to H3PO4 (^31P) or liquid ammonia (^15N). The ^15N chemical shifts were extracted from the ^1H–^15N HMBC spectra. In all cases, the ^13C{^1H} NMR spectra were registered using the JMODECHO mode; the signals for the C nuclei bearing odd and even numbers of protons had opposite polarities. The NMR peak assignments for ligand 1a and complexes 2a, 3a,b were based on the analysis of ^1H–^1H COSY, ^1H–^13C HSQC, and ^1H–^13C HMBC spectra. The results obtained were used to assign the NMR spectra of the other compounds obtained in this study. For the NMR spectra of the representative compounds, see Figures S1–S9 (1a), S11–S22 (2a), and S24–S35 (3b) in the Supporting Information. […]

## O=C(c1ccccn1)[N](CP(=O)(c1ccccc1)c1ccccc1)[Pd][Cl] [complex 3a, [κ^3-O,N,N-(L)Pd(II)Cl]]
[1]
  IC50: 36 ± 2 µM
MCF7 breast cancer cells
  IC50: 45 ± 5 µM
[2]
  IC50: 26 ± 6 µM
U251 glioblastoma cells
  IC50: > 80 µM
[3]
  percentage of live cells: 30% ^5
[4]
  IC50: 34 ± 3 µM
[5]
  IC50: > 80 µM
[6]
  IC50: > 80 µM
[7]
  IC50: 36 ± 4 µM
[8]
  IC50: 40 ± 4.5 µM
[9]
  IC50: 32 ± 2 µM
[10]
  IC50: 23 ± 1 µM
[11]
  stability by UV-vis spectroscopy: high stability
